Measured values from patent US10010547B2 (CASCADIAN THERAPEUTICS, INC., priority 2014, dated 2018).
Counter-ions that a name gives are not always drawn. Like-named read-outs stand apart in the source and are kept apart here.

What was measured:
Chk-1 kinase = Chk-1 kinase (Homo sapiens (Human), UniProt O14757); test: Chk-1 Kinase Inhibiting Activity (33P-ATP filter assay, CHKtide substrate); type: biochemical
Method in brief: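 Full-length N-terminal GST-tagged human Chk-1 from insect cells, 0.5 nM final, with 20 μM peptide substrate and 33P-ATP in HEPES pH 7.5 buffer with 1% DMSO. Reaction ran 120 minutes at room temperature; incorporated radioactivity captured on P81 filters and counted for IC50.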

MIA PaCa-2 cells = test: Gemcitabine Combination Cell Assay (Cell Titer Glo); type: cell-based; conditions: for IC50: Homo sapiens; for 10xLS: approximate concentration of Chk1 inhibitor that results in a 10-fold reduction in the IC50 of gemcitabine alone; for 2xLS: approximate concentration of Chk1 inhibitor that results in a two-fold reduction in the IC50 of gemcitabine alone
Method in brief: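 MIA PaCa-2 cells were treated 72 h with half-log dilutions of Chk1 inhibitor (top 3000 nM) and gemcitabine (top 100 nM), alone and in full matrix; viability by CellTiter-Glo luminescence. IC50s from four-parameter fit; Chk1 inhibitor concentrations giving two- and ten-fold lowering of gemcitabine IC50 were estimated.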

[1] = against Chk-1 kinase, read-out: IC50
[2] = Chk1 inhibitor alone, MIA PaCa-2 cells, 72 h, read-out: Chk1 IC50
[3] = MIA PaCa-2, 72 h, read-out: Chk1 IC50 (nM)

Chain of Chk-1 kinase (O14757 whole entry): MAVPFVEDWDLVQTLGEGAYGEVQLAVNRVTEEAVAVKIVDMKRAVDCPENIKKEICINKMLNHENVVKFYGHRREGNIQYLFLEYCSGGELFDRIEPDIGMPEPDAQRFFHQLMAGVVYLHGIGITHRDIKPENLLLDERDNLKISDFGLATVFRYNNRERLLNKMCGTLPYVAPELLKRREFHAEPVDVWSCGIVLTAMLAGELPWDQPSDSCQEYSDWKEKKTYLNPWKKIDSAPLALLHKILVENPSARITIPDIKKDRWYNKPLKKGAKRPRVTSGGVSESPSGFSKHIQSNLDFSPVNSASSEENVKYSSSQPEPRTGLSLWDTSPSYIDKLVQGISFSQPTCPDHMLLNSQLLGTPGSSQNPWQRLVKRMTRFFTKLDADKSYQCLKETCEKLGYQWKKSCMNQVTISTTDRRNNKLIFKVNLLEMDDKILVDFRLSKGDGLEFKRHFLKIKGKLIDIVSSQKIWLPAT

CCN1CCCN(c2ccc(-c3cc(Nc4cnc(C#N)cn4)n[nH]3)c(OC)c2)CC1 [Example 83, 5-[[5-[4-(4-ethyl-1,4-diazepan-1-yl)-2-methoxy-phenyl]-1H-pyrazol-3-yl]amino]pyrazine-2-carbonitrile]
IC50 (Chk-1 kinase; [1]): 0.11 nM
IC50 (MIA PaCa-2 cells; [2]): 107 nM
10xLS (MIA PaCa-2 cells; MIA PaCa-2 cells, 72 h): <100 nM
2xLS (MIA PaCa-2 cells; MIA PaCa-2 cells, 72 h): <3 nM

COc1cc(N2CCCN(C(C)C)CC2)ccc1-c1cc(Nc2cnc(C#N)cn2)n[nH]1 [Example 84, 5-[[5-[4-(4-isopropyl-1,4-diazepan-1-yl)-2-methoxy-phenyl]-1H-pyrazol-3-yl]amino]pyrazine-2-carbonitrile]
IC50 (Chk-1 kinase; [1]): 0.14 nM
IC50 (MIA PaCa-2 cells; [2]): 62 nM
10xLS (MIA PaCa-2 cells; MIA PaCa-2 cells, 72 h): <100 nM
2xLS (MIA PaCa-2 cells; MIA PaCa-2 cells, 72 h): <3 nM

CCN1CCC(F)(c2ccc(-c3cc(Nc4cnc(C#N)cn4)n[nH]3)c(OC)c2)CC1 [Example 85, 5-[[5-[4-(1-ethyl-4-fluoro-4-piperidyl)-2-methoxy-phenyl]-1H-pyrazol-3-yl]amino]pyrazine-2-carbonitrile]
IC50 (Chk-1 kinase; [1]): 0.25 nM
IC50 (MIA PaCa-2 cells; [2]): 138 nM
10xLS (MIA PaCa-2 cells; MIA PaCa-2 cells, 72 h): 100 nM
2xLS (MIA PaCa-2 cells; MIA PaCa-2 cells, 72 h): 3 nM

COc1cc(C2(F)CCN(C(C)C)CC2)ccc1-c1cc(Nc2cnc(C#N)cn2)n[nH]1 [Example 86, 5-[[5-[4-(4-fluoro-1-isopropyl-4-piperidyl)-2-methoxy-phenyl]-1H-pyrazol-3-yl]amino]pyrazine-2-carbonitrile]
IC50 (Chk-1 kinase; [1]): 0.12 nM
IC50 (MIA PaCa-2 cells; [2]): 239 nM
10xLS (MIA PaCa-2 cells; MIA PaCa-2 cells, 72 h): <100 nM
2xLS (MIA PaCa-2 cells; MIA PaCa-2 cells, 72 h): <3 nM

CCN1CCC(c2ccc(-c3cc(Nc4cnc(C#N)cn4)n[nH]3)c(OC)c2)C(F)C1 (stereo not shown) [Example 87, 5-[[5-[4-(1-ethyl-3-fluoro-4-piperidyl)-2-methoxy-phenyl]-1H-pyrazol-3-yl]amino]pyrazine-2-carbonitrile hydrochloride]
IC50 (Chk-1 kinase; [1]): 0.059 nM
IC50 (MIA PaCa-2 cells; [3]): 540 nM
10xLS (MIA PaCa-2 cells; MIA PaCa-2 cells, 72 h): 300 nM
2xLS (MIA PaCa-2 cells; MIA PaCa-2 cells, 72 h): 10 nM

COc1cc(C2CCN(C(C)C)CC2F)ccc1-c1cc(Nc2cnc(C#N)cn2)n[nH]1 (stereo not shown) [Example 88, 5-[[5-[4-(3-fluoro-1-isopropyl-4-piperidyl)-2-methoxy-phenyl]-1H-pyrazol-3-yl]amino]pyrazine-2-carbonitrile]
IC50 (Chk-1 kinase; [1]): 0.079 nM
IC50 (MIA PaCa-2 cells; [2]): 424 nM
10xLS (MIA PaCa-2 cells; MIA PaCa-2 cells, 72 h): 300 nM
2xLS (MIA PaCa-2 cells; MIA PaCa-2 cells, 72 h): 10 nM

COCCN1CCC(c2ccc(-c3cc(Nc4cnc(C#N)cn4)n[nH]3)c(OC)c2)CC1 [Example 89, 5-[[5-[2-methoxy-4-[1-(2-methoxyethyl)-4-piperidyl]phenyl]-1H-pyrazol-3-yl]amino]pyrazine-2-carbonitrile]
IC50 (Chk-1 kinase; [1]): 0.051 nM
IC50 (MIA PaCa-2 cells; [2]): 193 nM
10xLS (MIA PaCa-2 cells; MIA PaCa-2 cells, 72 h): 100 nM
2xLS (MIA PaCa-2 cells; MIA PaCa-2 cells, 72 h): <3 nM

CCNCc1ccc(-c2cc(Nc3cnc(C#N)cn3)n[nH]2)c(OC)c1 [Example 90, 5-[[5-[4-(ethylaminomethyl)-2-methoxy-phenyl]-1H-pyrazol-3-yl]amino]pyrazine-2-carbonitrile]
IC50 (Chk-1 kinase; [1]): 0.058 nM
IC50 (MIA PaCa-2 cells; [2]): 390 nM
10xLS (MIA PaCa-2 cells; MIA PaCa-2 cells, 72 h): <300 nM
2xLS (MIA PaCa-2 cells; MIA PaCa-2 cells, 72 h): 10 nM

COc1cc(CNC2CC2)ccc1-c1cc(Nc2cnc(C#N)cn2)n[nH]1 [Example 91, 5-[[5-[4-[(cyclopropylamino)methyl]-2-methoxy-phenyl]-1H-pyrazol-3-yl]amino]pyrazine-2-carbonitrile]
IC50 (Chk-1 kinase; [1]): 0.33 nM
IC50 (MIA PaCa-2 cells; [2]): 411 nM
10xLS (MIA PaCa-2 cells; MIA PaCa-2 cells, 72 h): <100 nM
2xLS (MIA PaCa-2 cells; MIA PaCa-2 cells, 72 h): <3 nM

COc1cc(N2CCN(C)[C@H](C)C2)ccc1-c1cc(Nc2cnc(C#N)cn2)n[nH]1 [Example 92, 5-[[5-[4-[(3R)-3,4-dimethylpiperazin-1-yl]-2-methoxy-phenyl]-1H-pyrazol-3-yl]amino]pyrazine-2-carbonitrile]
IC50 (Chk-1 kinase; [1]): 0.016 nM
IC50 (MIA PaCa-2 cells; [2]): 132 nM
10xLS (MIA PaCa-2 cells; MIA PaCa-2 cells, 72 h): 30 nM
2xLS (MIA PaCa-2 cells; MIA PaCa-2 cells, 72 h): <3 nM

CCN1CCN(c2ccc(-c3cc(Nc4cnc(C#N)cn4)n[nH]3)c(OC)c2)C[C@H]1C [Example 93, 5-[[5-[4-[(3R)-4-ethyl-3-methyl-piperazin-1-yl]-2-methoxy-phenyl]-1H-pyrazol-3-yl]amino]pyrazine-2-carbonitrile]
IC50 (Chk-1 kinase; [1]): 0.016 nM
IC50 (MIA PaCa-2 cells; [2]): 99 nM
10xLS (MIA PaCa-2 cells; MIA PaCa-2 cells, 72 h): <30 nM
2xLS (MIA PaCa-2 cells; MIA PaCa-2 cells, 72 h): <3 nM

COc1cc(O[C@H]2CCN(C(C)C)C2)ccc1-c1cc(Nc2cnc(C#N)cn2)n[nH]1 [Example 94, 5-[[5-[4-[(3S)-1-isopropylpyrrolidin-3-yl]oxy-2-methoxy-phenyl]-1H-pyrazol-3-yl]amino]pyrazine-2-carbonitrile]
IC50 (Chk-1 kinase; [1]): 0.18 nM
IC50 (MIA PaCa-2 cells; [2]): 475 nM
10xLS (MIA PaCa-2 cells; MIA PaCa-2 cells, 72 h): 100 nM
2xLS (MIA PaCa-2 cells; MIA PaCa-2 cells, 72 h): 3 nM

COc1cc(O[C@@H]2CCN(C(C)C)C2)ccc1-c1cc(Nc2cnc(C#N)cn2)n[nH]1 [Example 95, 5-[[5-[4-[(3R)-1-isopropylpyrrolidin-3-yl]oxy-2-methoxy-phenyl]-1H-pyrazol-3-yl]amino]pyrazine-2-carbonitrile]
IC50 (Chk-1 kinase; [1]): 0.15 nM
IC50 (MIA PaCa-2 cells; [2]): 183 nM
10xLS (MIA PaCa-2 cells; MIA PaCa-2 cells, 72 h): <100 nM
2xLS (MIA PaCa-2 cells; MIA PaCa-2 cells, 72 h): <3 nM

COc1cc([C@H]2CCN(C)C[C@@H]2F)ccc1-c1cc(Nc2cnc(C#N)cn2)n[nH]1 [Example 96, 5-[[5-[4-[(3(R,S),4(R,S))-3-fluoro-1-methyl-4-piperidyl]-2-methoxy-phenyl]-1H-pyrazol-3-yl]amino]pyrazine-2-carbonitrile]
IC50 (Chk-1 kinase): 0.4 nM
IC50 (MIA PaCa-2 cells; [2]): 730 nM
10xLS (MIA PaCa-2 cells; MIA PaCa-2 cells, 72 h): <300 nM
2xLS (MIA PaCa-2 cells; MIA PaCa-2 cells, 72 h): 10 nM

COc1cc(C2CCN(C)CC2(F)F)ccc1-c1cc(Nc2cnc(C#N)cn2)n[nH]1 (stereo not shown) [Example 97, 5-[[5-[4-(3,3-Difluoro-1-methyl-4-piperidyl)-2-methoxy-phenyl]-1H-pyrazol-3-yl]amino]pyrazine-2-carbonitrile hydrochloride]
IC50 (Chk-1 kinase; [1]): 1.1 nM
IC50 (MIA PaCa-2 cells; [3]): 1500 nM
10xLS (MIA PaCa-2 cells; MIA PaCa-2 cells, 72 h): 300 nM
2xLS (MIA PaCa-2 cells; MIA PaCa-2 cells, 72 h): 10 nM

CCN1CCC(c2ccc(-c3cc(Nc4cnc(C#N)cn4)n[nH]3)c(OC)c2)C(F)(F)C1 (stereo not shown) [Example 98, 5-[[5-[4-(1-ethyl-3,3-difluoro-4-piperidyl)-2-methoxy-phenyl]-1H-pyrazol-3-yl]amino]pyrazine-2-carbonitrile]
IC50 (Chk-1 kinase; [1]): 1.8 nM
IC50 (MIA PaCa-2 cells; [2]): 1780 nM
10xLS (MIA PaCa-2 cells; MIA PaCa-2 cells, 72 h): <1000 nM
2xLS (MIA PaCa-2 cells; MIA PaCa-2 cells, 72 h): 10 nM

COc1cc(C2CCN(CCO)CC2)ccc1-c1cc(Nc2cnc(C#N)cn2)n[nH]1 [Example 99, 5-[[5-[4-[1-(2-hydroxyethyl)-4-piperidyl]-2-methoxy-phenyl]-1H-pyrazol-3-yl]amino]pyrazine-2-carbonitrile]
IC50 (Chk-1 kinase; [1]): 0.15 nM
IC50 (MIA PaCa-2 cells; [2]): 233 nM
10xLS (MIA PaCa-2 cells; MIA PaCa-2 cells, 72 h): 30 nM
2xLS (MIA PaCa-2 cells; MIA PaCa-2 cells, 72 h): <3 nM

COc1cc(CN(C)C(C)C)ccc1-c1cc(Nc2cnc(C#N)cn2)n[nH]1 [Example 100, 5-[[5-[4-[[isopropyl(methyl)amino]methyl]-2-methoxy-phenyl]-1H-pyrazol-3-yl]amino]pyrazine-2-carbonitrile]
IC50 (Chk-1 kinase; [1]): 0.053 nM
IC50 (MIA PaCa-2 cells; [2]): 247 nM
10xLS (MIA PaCa-2 cells; MIA PaCa-2 cells, 72 h): <100 nM
2xLS (MIA PaCa-2 cells; MIA PaCa-2 cells, 72 h): 3 nM

COc1cc(CN2CCCC2)ccc1-c1cc(Nc2cnc(C#N)cn2)n[nH]1 [Example 101, 5-[[5-[2-methoxy-4-(pyrrolidin-1-ylmethyl)phenyl]-1H-pyrazol-3-yl]amino]pyrazine-2-carbonitrile]
IC50 (Chk-1 kinase; [1]): 0.055 nM
IC50 (MIA PaCa-2 cells; [2]): 199 nM
10xLS (MIA PaCa-2 cells; MIA PaCa-2 cells, 72 h): <100 nM
2xLS (MIA PaCa-2 cells; MIA PaCa-2 cells, 72 h): 3 nM

COc1cc(CN2CCOCC2)ccc1-c1cc(Nc2cnc(C#N)cn2)n[nH]1 [Example 102, 5-[[5-[2-methoxy-4-(morpholinomethyl)phenyl]-1H-pyrazol-3-yl]amino]pyrazine-2-carbonitrile]
IC50 (Chk-1 kinase; [1]): 0.16 nM
IC50 (MIA PaCa-2 cells; [2]): 957 nM
10xLS (MIA PaCa-2 cells; MIA PaCa-2 cells, 72 h): 300 nM
2xLS (MIA PaCa-2 cells; MIA PaCa-2 cells, 72 h): 10 nM

COc1cc(OC[C@H]2CCCN2C)ccc1-c1cc(Nc2cnc(C#N)cn2)n[nH]1 [Example 103, 5-[[5-[2-methoxy-4-[[(2R)-1-methylpyrrolidin-2-yl]methoxy]phenyl]-1H-pyrazol-3-yl]amino]pyrazine-2-carbonitrile hydrochloride]
IC50 (Chk-1 kinase; [1]): 0.109 nM
IC50 (MIA PaCa-2 cells; [3]): 184 nM
10xLS (MIA PaCa-2 cells; MIA PaCa-2 cells, 72 h): 300 nM
2xLS (MIA PaCa-2 cells; MIA PaCa-2 cells, 72 h): 3 nM

COc1cc(OC[C@@H]2CCCN2C)ccc1-c1cc(Nc2cnc(C#N)cn2)n[nH]1 [Example 104, 5-[[5-[2-methoxy-4-[[(2S)-1-methylpyrrolidin-2-yl]methoxy]phenyl]-1H-pyrazol-3-yl]amino]pyrazine-2-carbonitrile hydrochloride]
IC50 (Chk-1 kinase; [1]): 0.12 nM
IC50 (MIA PaCa-2 cells; [3]): 214 nM
10xLS (MIA PaCa-2 cells; MIA PaCa-2 cells, 72 h): 100 nM
2xLS (MIA PaCa-2 cells; MIA PaCa-2 cells, 72 h): 3 nM
